Experiments:
Assay type in all cases: in vivo
[1] = tested on: large crabgrass (Digitaria sanguinalis); test: Pre-emergence application, herbicidal effect on large crabgrass (Table 1); parameters: key: 0: not damaged; 5: completely killed; conditions: 20 days after application, score 0-5
How it was run: (§1)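 Pre-emergence soil treatment: seeds sown in pots of about 10 cm and covered with soil, then compounds applied as wettable powder diluted in water. Plants grown in a greenhouse; damage scored 20 days after application from 0 (not damaged) to 5 (completely killed).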

[2] = tested on: barnyard grass (Echinochloa crus-galli); test: Pre-emergence application, herbicidal effect on barnyard grass (Table 1); parameters: key: 0: not damaged; 5: completely killed; conditions: 20 days after application, score 0-5
How it was run: as §1

[3] = tested on: broad-leaved weeds, e.g., monochoria, false pimpernel and toothcup; test: Water application, herbicidal effect on broad-leaved weeds (Table 2); parameters: key: 0: not damaged; 5: completely killed; conditions: 25 days, score 0-5
How it was run: (§2)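 Flooded paddy-soil pots with 3-leaf-stage transplanted rice and sown barnyard grass; wettable-powder compounds applied to soil under water. Herbicidal effect and rice phytotoxicity, also on spontaneously germinated broad-leaved weeds, scored 0–5 at 25 days after application.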

[4] = tested on: common purslane (Portulaca oleracea); test: Pre-emergence application, herbicidal effect on common purslane (Table 1); parameters: key: 0: not damaged; 5: completely killed; conditions: 20 days after application, score 0-5
How it was run: as §1

[5] = tested on: barnyard grass (Echinochloa crus-galli); test: Water application, herbicidal effect on barnyard grass (Table 2); parameters: key: 0: not damaged; 5: completely killed; conditions: 25 days, score 0-5
How it was run: as §2

radish = test: Pre-emergence application, herbicidal effect on radish (Table 1); parameters: key: 0: not damaged; 5: completely killed; conditions: 20 days after application, score 0-5
How it was run: as §1

rice = test: Water application, phytotoxicity on rice (Table 2); parameters: key: 0: no effect; 1: very slightly affected; 2: slightly affected; 3: moderately affected; 4: considerably affected; 5: completely killed; conditions: 25 days, score 0-5
How it was run: as §2

[6] = tested on: common lambsquarter (Chenopodium album); test: Pre-emergence application, herbicidal effect on common lambsquarter (Table 1); parameters: key: 0: not damaged; 5: completely killed; conditions: 20 days after application, score 0-5
How it was run: as §1

[7] = tested on: redroot pigweed (Amaranthus retroflexus); test: Pre-emergence application, herbicidal effect on redroot pigweed (Table 1); parameters: key: 0: not damaged; 5: completely killed; conditions: 20 days after application, score 0-5
How it was run: as §1

Row | Structure (SMILES) | Herbicidal effect, large crabgrass ([1]; 10 g./a.) | Herbicidal effect, large crabgrass ([1]; 20 g./a.) | Herbicidal effect, large crabgrass ([1]; 40 g./a.) | Herbicidal effect, barnyard grass ([2]; 10 g./a.) | Herbicidal effect, barnyard grass ([2]; 20 g./a.) | Herbicidal effect, barnyard grass ([2]; 40 g./a.) | Herbicidal effects, broad-leaved weeds ([3]; 10 g/a) | Herbicidal effects, broad-leaved weeds ([3]; 20 g/a) | Herbicidal effects, broad-leaved weeds ([3]; 40 g/a) | Herbicidal effect, common purslane ([4]; 10 g./a.) | Herbicidal effect, common purslane ([4]; 20 g./a.) | Herbicidal effect, common purslane ([4]; 40 g./a.) | Herbicidal effects, barnyard grass ([5]; 10 g/a) | Herbicidal effects, barnyard grass ([5]; 20 g/a) | Herbicidal effects, barnyard grass ([5]; 40 g/a) | Herbicidal effect, radish (radish; 10 g./a.) | Herbicidal effect, radish (radish; 20 g./a.) | Herbicidal effect, radish (radish; 40 g./a.) | Phytotoxicity on rice (rice; 10 g/a) | Phytotoxicity on rice (rice; 20 g/a) | other results
1 | CCCOP(=O)(SC)SCC(=O)N1CCCCC1CC (stereo not drawn) [Compound 83] | 5 | 5 | 5 | 5 | 5 | 5 | 5 | 5 | 5 | 5 | 5 | 5 | 5 | 5 | 5 | 0 | 1 | 2 | 0 | 0 | Phytotoxicity on rice (rice; 40 g/a): 0; Herbicidal effect, common lambsquarter ([6]; 10 g./a.): 5; Herbicidal effect, common lambsquarter ([6]; 20 g./a.): 5; Herbicidal effect, common lambsquarter ([6]; 40 g./a.): 5; Herbicidal effect, redroot pigweed ([7]; 10 g./a.): 5; Herbicidal effect, redroot pigweed ([7]; 20 g./a.): 5; Herbicidal effect, redroot pigweed ([7]; 40 g./a.): 5
2 | CCCOP(=O)(SCC)SCC(=O)N1CCCCC1CC (stereo not drawn) [Compound 84] | 5 | 5 | 5 | 5 | 5 | 5 | 5 | 5 | 5 | 5 | 5 | 5 | 5 | 5 | 5 | 0 | 1 | 2 | 0 | 0 | Phytotoxicity on rice (rice; 40 g/a): 2; Herbicidal effect, common lambsquarter ([6]; 10 g./a.): 4; Herbicidal effect, common lambsquarter ([6]; 20 g./a.): 5; Herbicidal effect, common lambsquarter ([6]; 40 g./a.): 5; Herbicidal effect, redroot pigweed ([7]; 10 g./a.): 4; Herbicidal effect, redroot pigweed ([7]; 20 g./a.): 5; Herbicidal effect, redroot pigweed ([7]; 40 g./a.): 5
3 | CCCOP(=O)(SCCC)SCC(=O)N1CCCCC1CC (stereo not drawn) [Compound 85] | 5 | 5 | 5 | 5 | 5 | 5 | 5 | 5 | 5 | 5 | 5 | 5 | 5 | 5 | 5 | 0 | 0 | 0 | 0 | 0 | Phytotoxicity on rice (rice; 40 g/a): 0; Herbicidal effect, common lambsquarter ([6]; 10 g./a.): 5; Herbicidal effect, common lambsquarter ([6]; 20 g./a.): 5; Herbicidal effect, common lambsquarter ([6]; 40 g./a.): 5; Herbicidal effect, redroot pigweed ([7]; 10 g./a.): 5; Herbicidal effect, redroot pigweed ([7]; 20 g./a.): 5; Herbicidal effect, redroot pigweed ([7]; 40 g./a.): 5
4 | CCCCSP(=O)(OCCC)SCC(=O)N1CCCCC1CC (stereo not drawn) [Compound 86] | 5 | 5 | 5 | 5 | 5 | 5 | 5 | 5 | 5 | 5 | 5 | 5 | 5 | 5 | 5 | 0 | 0 | 0 | 0 | 0 | Phytotoxicity on rice (rice; 40 g/a): 0; Herbicidal effect, common lambsquarter ([6]; 10 g./a.): 5; Herbicidal effect, common lambsquarter ([6]; 20 g./a.): 5; Herbicidal effect, common lambsquarter ([6]; 40 g./a.): 5; Herbicidal effect, redroot pigweed ([7]; 10 g./a.): 4; Herbicidal effect, redroot pigweed ([7]; 20 g./a.): 5; Herbicidal effect, redroot pigweed ([7]; 40 g./a.): 5
5 | CCCOP(=O)(SCC(=O)N1CCCCC1CC)SC(C)CC (stereo not drawn) [Compound 87] | 5 | 5 | 5 | 5 | 5 | 5 | 5 | 5 | 5 | 3 | 4 | 5 | 5 | 5 | 5 | 0 | 0 | 0 | 0 | 0 | Phytotoxicity on rice (rice; 40 g/a): 0; Herbicidal effect, common lambsquarter ([6]; 10 g./a.): 3; Herbicidal effect, common lambsquarter ([6]; 20 g./a.): 3; Herbicidal effect, common lambsquarter ([6]; 40 g./a.): 5; Herbicidal effect, redroot pigweed ([7]; 10 g./a.): 3; Herbicidal effect, redroot pigweed ([7]; 20 g./a.): 4; Herbicidal effect, redroot pigweed ([7]; 40 g./a.): 5
6 | CCCOP(=O)(SCC(=O)N1CCCCC1CC)SCC(C)C (stereo not drawn) [Compound 88] | 5 | 5 | 5 | 5 | 5 | 5 | 5 | 5 | 5 | 3 | 3 | 4 | 5 | 5 | 5 | 0 | 0 | 0 | 0 | 0 | Phytotoxicity on rice (rice; 40 g/a): 0; Herbicidal effect, common lambsquarter ([6]; 10 g./a.): 3; Herbicidal effect, common lambsquarter ([6]; 20 g./a.): 3; Herbicidal effect, common lambsquarter ([6]; 40 g./a.): 4; Herbicidal effect, redroot pigweed ([7]; 10 g./a.): 3; Herbicidal effect, redroot pigweed ([7]; 20 g./a.): 3; Herbicidal effect, redroot pigweed ([7]; 40 g./a.): 4

— patent US4015974A, “Amido phosphorothiolates” (priority 1972, dated 1977)
